{
  "source": "patent EP0315491A2",
  "about": "“Amino-substituted pyrylium dyes and uses thereof” (EASTMAN KODAK COMPANY (a New Jersey corporation), priority 1987, dated 1989)",
  "key": {"[1]": {"test_system": "human melanoma cell line, LOX", "test": "Melanoma test using nude mice protocol (survival, T/C)", "assay_type": "in vivo", "text": "The present invention will now be described by way of example with reference to the accompanying drawings in which: Figures 1-4 are survival plots of cancer-bearing mice treated with the dyes of this invention, compared to a control group of such mice left untreated. In these plots, \"% survival\" means the percentage of the total group (treated \"T\" or control \"C\") still surviving on the day in question. The 50% data point is selected for the T/C calculation, as being the point that is statistically meaningful. Effectiveness against human cancer can be inferred by tests in the nude mouse-human xenograft model, hereinafter \"nude mice protocol\". […] 899-903, especially p. 889 (April 1985). Nude mice, that is, those deficient in thymic functions, bred and maintained in pathogen free conditions [see J. Natl. Cancer Inst. 51:615-619 (1973)] were used in in vivo experiments. For each experiment, nude mice from the same litter and of the same sex which were over 3 months old and weighed at least 25g were injected or implanted with cancer cells. A human melanoma cell line, LOX, was used that grows rapidly when inoculated into the peritoneal cavity of the athymic mice. Tumors which had been passaged subcutaneously in athymic mice were excised under sterile conditions and converted to a single cell suspension using a metal grid with a 4 mm mesh. Red blood cells were then lysed by incubation with 0.17 molar ammonium chloride at 4°C for 30 minutes. Cells were then scored for viability with trypan blue and 5 million viable cells made up in 0.2 ml of Dulbecco modified Eagles' medium (DME) were injected intraperitoneally (IP) into a group of male athymic Swiss nu/nu mice (day 0). The mice were then randomly allocated into treatment and control groups (5% dextrose) and treatment, by intraperitoneal injection commenced the following day. In Example 6, five mice received 5 mg/kg of the drug T-5, Table I, administered Monday, Wednesday & Friday of each week for a total of 11 injections. Five mice received the same volume of the control 5% dextrose solution on the same days. […]"}, "[2]": {"test_system": "human ovarian carcinoma line OVCAR-3", "test": "Ovarian carcinoma (OVCAR-3) test using nude mice protocol (survival, T/C)", "assay_type": "in vivo", "conditions": "for T/C: female nude mice, OVCAR-3 xenograft, three injections per week for 6 weeks (Fig. 3)", "text": "The present invention will now be described by way of example with reference to the accompanying drawings in which: Figures 1-4 are survival plots of cancer-bearing mice treated with the dyes of this invention, compared to a control group of such mice left untreated. In these plots, \"% survival\" means the percentage of the total group (treated \"T\" or control \"C\") still surviving on the day in question. The 50% data point is selected for the T/C calculation, as being the point that is statistically meaningful. Nude mice, that is, those deficient in thymic functions, bred and maintained in pathogen free conditions [see J. Natl. Cancer Inst. 51:615-619 (1973)] were used in in vivo experiments. For each experiment, nude mice from the same litter and of the same sex which were over 3 months old and weighed at least 25g were injected or implanted with cancer cells. Examples 6 and 7 were repeated, except they were administered to female nude mice (aged 8-12 weeks) xenografted with human ovarian carcinoma line OVCAR-3. Eight mice in Example 6, and 8 mice in Example 7 were selected for treatment with the thiopyrylium, in an amount of 2.5 and 5 mg/kg respectively, administered IP 1 day after the cancer cells were injected. This was repeated as follows: Three injections per week for 6 weeks. Eight mice were used as the control group and were injected with 0.25 ml of 5% dextrose in water."}, "MB49 tumor cells [3]": {"test_system": "MB49 tumor cells", "test": "Mouse bladder carcinoma, tumor cells and drug given IP (survival, T/C)", "assay_type": "in vivo", "conditions": "normal male BDFI mice, MB49 cells IP", "text": "The present invention will now be described by way of example with reference to the accompanying drawings in which: Figures 1-4 are survival plots of cancer-bearing mice treated with the dyes of this invention, compared to a control group of such mice left untreated. In these plots, \"% survival\" means the percentage of the total group (treated \"T\" or control \"C\") still surviving on the day in question. The 50% data point is selected for the T/C calculation, as being the point that is statistically meaningful. MB49 tumor cells, that is, mouse carcinoma cells induced by the carcinogen 7,12-dimethyl benz[a]anthracene, were obtained by conventional processes and injected intraperitoneally into normal male BDFI mice (5 million/mouse). Each drug treated group and control group had 5 mice. In example 8, 5 mg/kg of T-5 was administered 3 times per week for three weeks, starting Day 1. In Example 9, it was 3 mg/kg three times per week for 3 weeks."}, "L1210 leukemia cells": {"test_system": "L1210 leukemia cells", "test": "In vitro IC50, suspension culture, cell count by Coulter Counter", "assay_type": "cell-based", "conditions": "compound present for 48 hours (four cell doubling times), read-out: IC50 L1210 Mouse Lymphoma", "procedure": "(§1) Although these examples were not tested in animal models, their similar efficacy in human melanoma and differentiated carcinomas is predicated from the fact they had similar in vitro results compared to T-5. The in vitro tests were run as follows, to ascertain the IC₅₀ concentrations. (IC₅₀ is the in vitro concentration that kills one-half the cell line against which the compound is tested. The smaller the concentration, the higher the toxicity.)\n(§2) For the IC₅₀ values for the human lung carcinoma line, an adhering monolayer culture was used. Two days prior to plating, a number of cells obtained from the American Type Tissue Culture Collection was selected to grow as a stock, the number being that which would ensure the cells had not reached their plateau at the time of the in vitro test. On day 1 of the assay, asynchronous exponentially growing cells from this stock were suspended in a conventional complete medium comprising RPMI 1640 medium supplemented with 5% (v/v) fetal calf serum and 5% (v/v) NV serum obtained from Collaborative Research, and 20mM HEPES buffer, i.e., 4-(2-hydroxyethyl)-1-piperazineethanesulfonic acid. This was plated into a conventional 96-well tissue culture plate using a Cetus/Perkin Elmer automated pipetting device with a dual supply manifold. The cells were then incubated for 48 hours at 37°C in a humidified atmosphere containing 5% CO₂. Selected cells were then incubated under red light for 3 hours in the presence of varying amounts of the compound of interest at 37°C in a humidified incubator containing 5% CO₂. Compounds were tested over a 6-log range of concentrations. The drug treated cells were then rinsed one time with complete medium as set forth above, and incubated in complete medium the length of time appropriate to achieve four cell-doubling times (roughly 7 days for these cell lines). The medium was removed and the cells stained for 1-2 hours at 37°C with 0.1% (w/v) neutral red dye obtained from Eastman Kodak Co., dissolved in phosphate buffered saline (PBS) (without calcium or magnesium cations) at a pH of 6.85. The cells were rinsed twice with the same PBS and dried. Excess neutral red dye was eluted from each well with 50% (v/v) ethanol in 1% (v/v) aqueous glacial acetic acid. The absorbency of each well was quantitated using a Perkin-Elmer absorbence densitameter set at 540 nm. The percent of inhibition of cell growth for a given concentration of compound was calculated using the equation: [formula] where At = absorbence of the cells treated with the candidate drug, Au = absorbence of the control treated with solvent only, and Ab = absorbence of the media and well only (background). […] The plotted data was then fitted to the curve for the function: F(x) = 100 - [100(X/A)^B/(1+(X/A)^B)] where x = the concentration of the test compound, A = the IC₅₀ value (50% inhibition on the plot) and B = the exponent of the fitted function.\nTo determine the IC₅₀ for the L1210 leukemia cells, a suspension culture was used. The procedure for the monolayer culture was followed, except that the cells were seeded at a density of 3 X 10⁴ cells/ml in the RPMI 1640 medium supplemented this time with 10% (v/v) NV SERUM, no calf serum, and 20mM HEPES buffer, with the compound of interest already added. These were added immediately to a conventional 24-well culture plate and incubated for a four cell doubling time (48 hours for this cell line). Cell numbers were quantitated using the Model ZF Coulter Counter. F(x) was obtained from the equation: [formula] where Nt = number of treated cells detected, never less than No, Nu = number of cells detected in the control that were untreated except for the solvent, and No = number of cells initially seeded."}, "[4]": {"test_system": "human lung carcinoma line", "test": "In vitro IC50, adhering monolayer culture, neutral red staining", "assay_type": "cell-based", "conditions": "3 hours drug exposure under red light, then about 7 days growth, read-out: IC50 Lung Adeno-carcinoma", "procedure": "as §1, §2"}, "MB49 tumor cells [5]": {"test_system": "MB49 tumor cells", "test": "Mouse bladder carcinoma, tumor cells mixed with drug before instillation into the bladder (bladder weight)", "assay_type": "in vivo", "conditions": "21 days after tumor initiation; from mean bladder weights vs controls; MB49 cells (4 X 10⁶) mixed with 0.05 mg/ml drug before instillation into the mouse bladder", "procedure": "These values were calculated by dividing the difference between the mean weight of bladders from controls (water-treated animals) and mean weight of bladders of drug-treated animals by the mean weight of bladders from control animals and multiplying this fraction by 100. (In this experiment, the drug was administered by mixing the MB49 tumor cells (4 X 10⁶) with 0.05 mg/ml of the drug prior to instillation of the cell suspension into the mouse bladder.)"}},
  "note": "Read-outs that look alike come from different tables or passages of the source.",
  "data": [
    {"smiles": "CN(C)c1ccc(-c2cc(-c3ccccc3)[s+]c(-c3ccccn3)c2)cc1", "note": "[4-(4-N,N-dimethylaminophenyl-2-phenyl-6-(2-pyridyl)thiopyrylium chloride, reference compound]", "values": [
      {"measurement": "T/C against melanoma", "setting": "[1]; comparative example, xenografted human melanoma, very similar procedures, dose not stated, also listed in the Related Application", "result": 227, "unit": "%"},
      {"measurement": "T/C against the ovarian carcinoma", "setting": "[2]; comparative example, xenografted human ovarian cancer, very similar procedures, dose not stated, also listed in the Related Application", "result": 340, "unit": "%"}
    ]},
    {"smiles": "CN(C)c1ccc(-c2cc(-c3ccc(N)cc3)[s+]c(-c3ccc(N)cc3)c2)cc1.[Cl-]", "note": "[Compound T-5, 2,6-Bis(4-aminophenyl)-4-[4-(N,N-dimethyl-amino)phenyl]thiopyrylium chloride]", "values": [
      {"measurement": "T/C", "setting": "[1]; male athymic Swiss nu/nu mice, LOX cells IP, 5 mg/kg IP Monday, Wednesday & Friday, 11 injections, 50% survival point (Fig. 1)", "result": 366, "unit": "%"},
      {"measurement": "Survival (T/C)", "setting": "[1]; male athymic Swiss nu/nu mice, LOX cells IP, 8 mg/kg IP Wednesday and Saturday for 3 weeks (Fig. 2)", "result": 338, "unit": "%"},
      {"measurement": "T/C", "setting": "[2]; 2.5 mg/kg IP", "result": "> 450", "unit": "%"},
      {"measurement": "T/C", "setting": "[2]; 5 mg/kg IP", "result": "> 450", "unit": "%"},
      {"measurement": "T/C", "setting": "MB49 tumor cells [3]; 3 mg/kg three times per week for 3 weeks (Example 9, Fig. 4)", "result": 344, "unit": "%"},
      {"measurement": "T/C", "setting": "MB49 tumor cells [3]; 5 mg/kg 3 times per week for three weeks (Example 8, Fig. 4)", "result": 244, "unit": "%"},
      {"measurement": "IC50", "setting": "L1210 leukemia cells; Mus musculus, L1210, 48 h", "result": 220, "unit": "nM"},
      {"measurement": "IC50", "setting": "L1210 leukemia cells", "result": 140, "unit": "nM"},
      {"measurement": "IC50", "setting": "[4]", "result": "60 to 80", "unit": "nM"},
      {"measurement": "IC50", "setting": "[4]; Homo sapiens", "result": 40, "unit": "nM"}
    ]},
    {"smiles": "COc1ccc(-c2cc(-c3ccc(N)cc3)[s+]c(-c3ccc(N)cc3)c2)cc1", "note": "[Compound T-4, 2,6-Bis(4-aminophenyl)-4-(4-methoxyphenyl)-thiopyrylium chloride]", "values": [
      {"measurement": "IC50", "setting": "L1210 leukemia cells; Mus musculus, L1210, 48 h", "result": 10, "unit": "nM"},
      {"measurement": "IC50", "setting": "[4]; Homo sapiens", "result": 11, "unit": "nM"}
    ]},
    {"smiles": "CN(C)c1ccc(-c2cc(-c3ccccc3)[s+]c(-c3ccc(N(C)C)cc3)c2)cc1", "note": "[Compound T-6]", "values": [
      {"measurement": "average inhibition in tumor growth", "setting": "MB49 tumor cells [5]", "result": 21.6, "unit": "%"}
    ]},
    {"smiles": "CN(C)c1ccc(-c2cc(-c3cccc(N)c3)[s+]c(-c3cccc(N)c3)c2)cc1", "note": "[Compound T-1, 2,6-Bis(3-aminophenyl)-4-[4-(dimethyl-amino)phenyl]thiopyrylium chloride]", "values": [
      {"measurement": "IC50", "setting": "L1210 leukemia cells; Mus musculus, L1210, 48 h", "result": 38, "unit": "nM"},
      {"measurement": "IC50", "setting": "[4]; Homo sapiens", "result": 370, "unit": "nM"}
    ]},
    {"smiles": "Nc1ccc(-c2cc(-c3ccccc3)cc(-c3ccc(N)cc3)[s+]2)cc1", "note": "[Compound T-3, 2,6-Bis(4-aminophenyl)-4-phenylthiopyrylium chloride]", "values": [
      {"measurement": "IC50", "setting": "L1210 leukemia cells; Mus musculus, L1210, 48 h", "result": 33, "unit": "nM"},
      {"measurement": "IC50", "setting": "[4]; Homo sapiens", "result": 17, "unit": "nM"}
    ]},
    {"smiles": "Nc1ccc(-c2cc(-c3ccc(N)cc3)[s+]c(-c3ccc(N)cc3)c2)cc1", "note": "[Compound T-2, 2,4,6-Tris(4-aminophenyl)thiopyrylium chloride]", "values": [
      {"measurement": "IC50", "setting": "L1210 leukemia cells; Mus musculus, L1210, 48 h", "result": 270, "unit": "nM"},
      {"measurement": "IC50", "setting": "[4]; Homo sapiens", "result": 190, "unit": "nM"}
    ]}
  ]
}
